Data from paper PMC9629855, “Development of ASIC1a ligand-gated ion channel drug screening assays across multiple automated patch clamp platforms” (Frontiers in Molecular Neuroscience, 2022).
“And” between values parts separate entries of the source, which are not always exact repeats. Equal values may be shown once. Read-outs that look alike come from different tables or passages of the source. Bridges are numbered along the chain shown (N, C = ends). Where no end group is shown, it is not given here.

Tests used:
[1] = test system: "ASIC1-like" pH-activated currents in rat dorsal root ganglion neurons; set-up: method as in Dubé et al., 2005; conditions: ref Dubé et al., 2005, read-out: Literature IC50; cited from earlier work
hASIC1a [2] = target: T1, hASIC1a (Homo sapiens, UniProt P78348); test: cell-based; set-up: host or cells: CHO (tetracycline-inducible); conditions: pH 6.5 agonist, QPatch 48 single hole; for IC50: 2 min pre-incubation
T1 sequence (P78348 1-528): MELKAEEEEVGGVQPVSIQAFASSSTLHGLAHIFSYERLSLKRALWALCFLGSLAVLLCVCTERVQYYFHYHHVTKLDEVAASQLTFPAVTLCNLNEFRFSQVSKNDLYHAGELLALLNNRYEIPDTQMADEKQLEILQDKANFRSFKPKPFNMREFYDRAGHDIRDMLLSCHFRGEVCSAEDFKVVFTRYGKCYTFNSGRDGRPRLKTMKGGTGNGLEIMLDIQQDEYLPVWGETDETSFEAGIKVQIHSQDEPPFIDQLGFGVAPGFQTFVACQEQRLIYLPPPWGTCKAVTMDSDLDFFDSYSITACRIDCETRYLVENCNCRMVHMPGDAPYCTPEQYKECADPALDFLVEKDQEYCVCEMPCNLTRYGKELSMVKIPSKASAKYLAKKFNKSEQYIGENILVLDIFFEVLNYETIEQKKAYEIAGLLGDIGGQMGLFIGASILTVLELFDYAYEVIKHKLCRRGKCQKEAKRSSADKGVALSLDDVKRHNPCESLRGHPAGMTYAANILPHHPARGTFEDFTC
Procedure: (§1) CHO hASIC1a cells were cultured according to vendor instructions (B-SYS GmbH) and HEK cells using standard in-house methods. Both cell lines were harvested using optimized protocols and re-suspended in serum-free media (Gibco CHO-S-SFM from Thermo Fisher Scientific for CHO cells, and Ex-Cell 302 from Merck Sigma-Aldrich for HEK cells) to obtain a suspension of cells with smooth membranes and little debris, before transfer to the automated cell hotel consisting of a 60 ml plastic container (Sophion SB2050) and a magnetic stir bar to prevent cell clumping. An aliquot of cells is then aspirated into a 1 ml microcentrifuge tube and spun down (typically 150 g for 2.5 min) and the supernatant discarded before a user-defined volume of external solution is added by the robot and the cells re-suspended to achieve the desired final cell suspension density before application to primed QPlates. Cell capture, sealing and whole-cell access was achieved using optimized QPatch protocols before currents were recorded using a holding potential of −60 mV. […] Cells were washed three times with external pH 7.3 solution (5 μl) between applications of activating acidic solution to establish a stable ASIC1a current baseline. […] Each concentration of reference compound was applied to each cell before (i.e., during each pH 7.3 application period) and during each pH stimulus (IC50 mode). Thus, each concentration of test compound was pre-incubated with cells for at least 2 min before, and then during each acidic solution challenge, before wash-off in a neutral pH 7.3 solution that contained the next concentration of the same compound. Cells were allowed at least 2 min between applications of acidic solution to enable ASIC1a receptors to recover from desensitization.
(§2) Concentration-response xC50 curves from Patchliner and QPatch 48 experiments were calculated by plotting %inhibition (antagonists) or activation (pH) data against concentration in Prism software (GraphPad), using the variable sigmoidal dose-response function to fit the Hill equation with theoretical minimum block of 0% and maximum block of 100% and a free constant for Hill slope.
In addition, this protocol is designed to avoid tachyphylaxis associated with a more acidic pH stimulus, and it allows the development of a ligand-gated ASIC1a channel assay that can distinguish between agonists, partial agonists and antagonists. […] Compounds were tested using the cumulative concentration-response assay format shown in Figure 5A, which includes a 2 min pre-incubation period for each concentration to allow test samples to reach and equilibrate with their binding site(s) in the pore or large extracellular binding domain of ASIC1 receptor trimers. Agonist effects can also be detected during this period as membrane current data is recorded after every liquid addition. […] Mean inhibition data for each test sample is plotted against Log[compound] and fit with a concentration-response function.

hASIC1a [3] = target: T1, hASIC1a; set-up: host or cells: CHO; conditions: ref Diochot et al., 2012, cited from earlier work
hASIC1a [4] = target: T1, hASIC1a; test: QPatch 48 APC, CHO hASIC1a, multi-hole (10 hole X-plate) recordings; format: cell-based; set-up: host or cells: CHO (tetracycline-inducible)
Procedure: as §1, §2
Before employing a more efficient multi-hole assay it is important to establish that this variant of the APC whole-cell recording format returns the same biophysics and pharmacology as single cell recordings. To this end we ran some of the reference compounds detailed above in 10 hole “X-plate” mode on the QPatch 48.

[5] = test system: endogenous proton-activated currents in HEK cells; test: cells; format: cell-based, human; conditions: HEK cells
Procedure: as §1
as §2, with “slope. Inward current amplitudes were compared to the response to a control pH application (typically pH 6.5) prior to antagonist application or excitation by solutions of different pH to enable calculation of %inhibition or %activation for each cell.” for “slope.”
To quickly confirm a previous publication that HEK cells express endogenous ASIC1a receptor channels and assess the suitability of this cell system for drug discovery screening on APC platforms, we utilized the medium throughput QPatch 48 device. The QPatch uses 48 well microfluidic planar borosilicate chips and coated titanium pipette tips to make whole-cell recordings and sequentially apply small liquid volumes to enable rapid activation followed by slower deactivation (wash-off) of ligand-gated ionotropic responses. HEK cells were voltage-clamped at −60 mV and maintained in external solution at pH 7.4 to avoid steady-state desensitization of ASIC1 receptor channels. Cells were stimulated by external solutions with pH values ranging between 7.0 and 5.5 that evoked rapidly activating inward currents, followed by wash-off in pH 7.4 solution.

rat ASIC1a = test system: rat ASIC1a; set-up: method as in Diochot et al., 2012; conditions: ref Diochot et al., 2012, read-out: IC50 potency for the rat ortholog; cited from earlier work
TRPV1 receptor channels = test system: TRPV1 receptor channels; set-up: method as in Diochot et al., 2012; conditions: ref Diochot et al., 2012; cited from earlier work
ASIC1a = test system: ASIC1a; set-up: method as in Nagaeva et al., 2016; conditions: ref Nagaeva et al., 2016; cited from earlier work

CC(C)C1c2cc(C3CC3c3ccc4cc(C(=N)N)ccc4c3)ccc2CCN1C (centres unmarked) [A-317567]
IC50 [1]: 2000 nM
IC50 (hASIC1a [2]; read-out: IC50 potency): 660 nM
Hill slope (hASIC1a [2]): 0.9

LKCYQHGKVVTCHRDMKFCYHNIGMPFRNLKLILQGCSSSCSETENNKCCSTDRCNK (disulfide 3-19, 12-37, 41-49, 50-55) [Mambalgin-3]
IC50 (hASIC1a [3]; read-out: Literature IC50): 127 nM
IC50 (hASIC1a [4]): 160 nM
Hill slope (Hn) (hASIC1a [4]; multi-hole recordings, QPatch 48): 1.80
block of endogenous proton-activated currents ([5]; 300 nM): ~75%
potentiation of endogenous pH-evoked responses [5]: no evidence for such modulation
IC50 ([5]; pH 6.5 activation, QPatch 48, read-out: cumulative IC50): 119 nM
IC50 (rat ASIC1a): 17 to 55 nM
inhibition of TRPV1 receptor channels (TRPV1 receptor channels): does not inhibit
IC50 (hASIC1a [2]; IC50 potency): 160 nM
Hill slope (hASIC1a [2]): 1.8

Mambalgin-1 (LKCYQHGKVVTCHRDMKFCYHNTGMPFRNLKLILQGCSSSCSETENNKCCSTDRCNK; ends and bridges not checked; cysteine pairing not given here; UniProt P0DKR6 22-78, looked up) [snake toxin differing from Mambalgin-3 at one non-critical amino acid residue]
IC50 (hASIC1a [3]; Sun et al., 2018, read-out: quoted values against human ASIC1a channels): 127 nM and 197 nM

N.N.N.N.N.N.N.N.N.N.N.N.N.N.[Cl-].[Cl-].[Cl-].[Cl-].[Cl-].[Cl-].[O-2].[O-2].[Ru+3].[Ru+3].[Ru+4] [Ruthenium Red]
inhibition of amplitude of currents activated by pH 6.5 ([5]; 1 μM Ruthenium Red): 12 ± 7%

NC12CC3CC(CC(C3)C1)C2 [Amantadine]
IC50 (hASIC1a [2]; read-out: IC50 potency): 510000 nM
Hill slope (hASIC1a [2]): 0.9

CC12CC3CC(C)(C1)CC(N)(C3)C2 [Memantine]
Literature inhibition at 500 μM (ASIC1a): 31% at 500 μM
IC50 (hASIC1a [2]; read-out: IC50 potency): 315000 nM
Hill slope (hASIC1a [2]): 1.1
